Assay results: publication PMC10634346 (Cancer Research Communications, 2023)

Columns and labels:
[1] = Body weight of treated xenograft mice; format: in vivo, C.B-17 SCID mice; details: 15 mg/kg i.v. once weekly
Experimental: A total of 10 × 10^6 SU-DHL-10 cells were inoculated subcutaneously into 6–8 weeks old female C.B-17 SCID mice (Iffa Credo, Brussels). The mice were randomized to treatment groups at a tumor volume of 63–104 mm^3 and treated (intravenously, once weekly) with 10 mg/kg enitociclib (60% PEG400, 10% ethanol, water), 15 mg/kg enitociclib (30% PEG400, 10% ethanol, water), or corresponding vehicle treatments. Mice were around 10–12 weeks of age at the start of study. All animal experiments were performed under the national animal welfare laws of Germany and approved by the local authorities.

[2] = test system: p-Ser2 RNA polymerase II in SU-DHL-10 tumors; test: Pharmacodynamics in SU-DHL-10 xenograft tumors, p-Ser2; format: in vivo, C.B-17 SCID mice
Experimental: (§1) The levels of p-Ser2, p-Ser5 and total RNA polymerase II, Myc, Mcl-1, cleaved PARP (cPARP), and cleaved Caspase 3 were assessed by Western blotting and quantified near-infrared detection and background corrected quantification of fluorescence intensity on an Odyssey Imaging System with IRDye secondary antibodies (LI-COR Biosciences). For quantification, the protein levels were normalized to GAPDH or HSP90, expressed as a ratio to DMSO or vehicle control at matched timepoints. The normalized relative protein levels of p-Ser2 were used for a treatment effect comparison by performing an ANOVA using PROC MIXED in SAS. The ANOVA model included treatment, timepoints and their interactions as fixed effects. The least square means (LSM), differences between the LSMs and associated P values were generated. The following primary antibodies were used: Rpb1 NTD (D8L4Y) rabbit antibody [Cell Signaling Technology (CST), #14958], anti-RNA polymerase II subunit B1 (phospho CTD Ser-2, clone 3E10) rat antibody (Merck, 04-1571-I), recombinant anti-c-MYC rabbit antibody (Y69; Abcam, #ab32072), MCL1 (D5V5L) rabbit antibody (CST, #39224), cleaved-PARP (Asp214) (E2T4K) mouse antibody (CST, #32563), HSP90 (C45G5) rabbit antibody (CST, #4877), and GAPDH mouse antibody (Zytomed Systems, #ZYT-RGM2-6C5). […]

[3] = test system: RNA polymerase II Ser2 phosphorylation (p-Ser2) in SU-DHL-10 cells; test: In vitro washout, p-Ser2 Western blot, SU-DHL-10; format: cell-based, human; details: 1 µmol/L
Experimental: Evaluation of the pharmacodynamic extent and duration of CDK9 inhibition were performed in vitro using the human DLBCL cell lines SU-DHL-4 and SU-DHL-10, harboring MYC amplification and MYC overexpression with P57T mutation, respectively. Cells were seeded 18 hours prior to treatment for 4 hours with one of three CDK9 inhibitors, enitociclib (0.25 and1 µmol/L), atuveciclib (1 µmol/L) or KB-0742 (1 µmol/L), cells were washed, and incubation continued until 48 hours posttreatment. Samples were collected before treatment (−4), immediately after treatment (0), and at 1, 2, 4, 8, 12, 16, 24, and 48 hours after washout for RNA sequencing (RNA-seq), qPCR, and Western blotting analyses.
The levels of p-Ser2, p-Ser5 and total RNA polymerase II, Myc, Mcl-1, cleaved PARP (cPARP), and cleaved Caspase 3 were assessed by Western blotting and quantified near-infrared detection and background corrected quantification of fluorescence intensity on an Odyssey Imaging System with IRDye secondary antibodies (LI-COR Biosciences). For quantification, the protein levels were normalized to GAPDH or HSP90, expressed as a ratio to DMSO or vehicle control at matched timepoints. The normalized relative protein levels of p-Ser2 were used for a treatment effect comparison by performing an ANOVA using PROC MIXED in SAS. The ANOVA model included treatment, timepoints and their interactions as fixed effects. The least square means (LSM), differences between the LSMs and associated P values were generated. The following primary antibodies were used: Rpb1 NTD (D8L4Y) rabbit antibody [Cell Signaling Technology (CST), #14958], anti-RNA polymerase II subunit B1 (phospho CTD Ser-2, clone 3E10) rat antibody (Merck, 04-1571-I), recombinant anti-c-MYC rabbit antibody (Y69; Abcam, #ab32072), MCL1 (D5V5L) rabbit antibody (CST, #39224), cleaved-PARP (Asp214) (E2T4K) mouse antibody (CST, #32563), HSP90 (C45G5) rabbit antibody (CST, #4877), and GAPDH mouse antibody (Zytomed Systems, #ZYT-RGM2-6C5).

[4] = test system: Mcl-1 protein in SU-DHL-10 tumors; test: Pharmacodynamics in SU-DHL-10 xenograft tumors, Mcl-1 protein; format: in vivo, C.B-17 SCID mice; details: single dose; within 4 to 8 hours postdose
Experimental: as §1

SU-DHL-4 = test: CellTiter-Glo cell viability, SU-DHL-4; format: cell-based; details: Homo sapiens
Experimental: Human DLBCL cell lines SU-DHL-4 (#ACC 495) and SU-DHL-10 (#ACC 576) were obtained from DSMZ (German Collection of Microorganisms and Cell Cultures). The supplier used PCR-based DNA profiling of polymorphic short tandem repeats for authentication and Mycoplasma testing prior to shipment. Cells were cultured in suspension at 37°C in a humidified atmosphere containing 5% CO2. CDK9 inhibitors KB-0742 (MedChemExpress, #HY-137478A), enitociclib, and atuveciclib ([…] Pharma, Inc.) were used. A subset of 35 lymphoma cell lines is from a 500-cell line panel where the effect of enitociclib on cell viability using CellTiter-Glo luminescent cell viability was determined (OmniScreen, CrownBioscience). Genetic status and gene expression level for MYC and MCL1 was obtained from CrownBioscience.

Q: Which results are given for `COc1cc(F)ccc1-c1cc(Nc2cc(CS(C)(=N)=O)ccn2)ncc1F` (stereo not shown) [enitociclib]?
A: maximum body weight change [1]: −12.5%; decrease of p-Ser2 levels in tumors ([2]; single dose 5 mg/kg, for 8 hours): greater than 50%; p-Ser2 in tumors (in words) ([2]; single dose 10 and 15 mg/kg, 8 hours postdose timeframe): depletion of p-Ser2; reduction of p-Ser2 ([3]; 4-hour treatment then washout): 50%; duration of p-Ser2 reduction ([3]; after treatment): up to 24 hours; Mcl-1 protein levels in tumors (in words) [4]: robustly decreased; IC50 (SU-DHL-4): 0.043 µM
